Usually IC50 stands for the concentration needed to halve the response being measured. By pIC50 is commonly meant the negative decadic logarithm of the IC50, by convention in mol/L.

SMILES strings stand for the structures. pIC50: −log10 of the molar value. Calls of active or inactive are those of the source.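 The calls were made as follows: active = compounds whose fitted half-maximal concentration in the cell-protection dose series is at or below a set limit; inactive = the rest.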

The test system of this assay is H9c2 cardiomyocytes, 2-deoxyglucose stress, ATP luminescence, 2 h. The assay can be described thus: protection of cardiomyocytes from 2-deoxyglucose injury, dose response, cell-based, 2-deoxyglucose stress, uHTS hits (AID 588780).
`COc1cc(NC(=O)c2ccco2)c(OC)cc1NC(=O)c1cc(OC)c(OC)c(OC)c1`: the IC50 was > 79 µM (inactive).
Same read-out and setting: to `CC1Cc2ccccc2C(=O)N1` (configuration not stated) belongs > 79 µM (inactive).
On to `O=C(Nc1nnc(-c2ccc3c(c2)CCCC3)o1)c1ccccc1`, for which the pIC50 was 4.63.
With `COc1ccc(C=CC(=O)c2ccc3cc(OC)c(OC)cc3c2)cc1OC`, the IC50 is > 79 µM (inactive).
Same read-out and setting: to `CCSc1nnc(NC(=O)C2Cc3ccccc3CN2S(=O)(=O)CC)s1` (configuration not stated) belongs 43.6 µM (inactive).
For the compound `CC(=O)Nc1cccc(-c2cc(NC=O)c3ncc(-c4cccc(C(C)=O)c4)n3c2)c1`, the IC50 was > 79 µM (inactive).
In the case of `O=C1OCCN1C(=O)[C@H]1[C@H](c2ccc([N+](=O)[O-])cc2)C(c2ccccc2)=NN1c1ccc(Br)cc1`, the IC50 is > 79 µM (inactive).
Consider `COc1ccc(OC)c(/C=N/Nc2nncn2/N=C/c2cc(OC)ccc2OC)c1`, for which the IC50 was > 79 µM (inactive).
On to `CCOC(=O)c1cnc(Nc2nc3ccccc3o2)nc1CSc1nnc(C)s1`, for which the IC50 is > 79 µM (inactive).
In the case of `COc1ccc(-c2csc(/C(C#N)=C(\O)CSc3nccn3C)n2)cc1OC`, the IC50 was > 79 µM (inactive).
As to `O=C(CN1CCN(c2ccccc2F)CC1)c1ccc(O)c(O)c1`, the IC50 was > 79 µM (inactive).
Same read-out and setting: to `CN(CC(=O)Nc1cccc(F)c1)C(=O)CCc1nc2ccccc2c(=O)[nH]1` belongs > 79 µM (inactive); to `COc1cc(OC)c2ccc(=O)oc2c1C(CC(=O)N1CCN(c2ccccc2)CC1)c1ccc2c(c1)OCO2` (configuration not stated), > 79 µM (inactive).
With `Cc1cc(OCC(=O)N2CCOCC2)cc2oc(=O)c3ccccc3c12`, the pIC50 is 4.83.
On to `Cc1ccc(NC(=O)CSC(C)C(=O)OCc2cc(=O)oc3cc(O)ccc23)cc1` (configuration not stated), for which the IC50 is > 79 µM (inactive).
On to `CC(Oc1ccccc1)C(=O)Nc1nc(-c2ccccn2)cs1` (configuration not stated), for which the IC50 is > 79 µM (inactive).
For the compound `COc1ccc(Nc2nc(C(=O)N3CCc4cc(OC)c(OC)cc4C3)cs2)cc1`, the IC50 was > 79 µM (inactive).
On the same count and under the same terms, to `COc1ccc(C(=O)COC(=O)c2ccc([N+](=O)[O-])s2)cc1OC` belongs > 79 µM (inactive); to `Cc1ccc(C(C(=O)NCc2ccccc2)N(Cc2cccs2)C(=O)c2ccc3c(c2)OCCO3)cc1` (configuration not stated), > 79 µM (inactive); to `Cn1c(NCc2ccco2)nc2c1c(=O)n(Cc1ccc(Cl)cc1)c(=O)n2C`, 31.3 µM (inactive).
Still for that read-out and setting: to `Cc1[nH]c2ccccc2c1C(=O)CSc1nc2ccccc2[nH]1` belongs > 79 µM (inactive).
`COc1ccc(Cl)cc1NC(=O)CCS(=O)(=O)c1cc2c(cc1C)NC(=O)CO2`: the negative-log IC50 (pIC50) was 4.67.
Take `CCC(C)Nc1ncnc2c1cnn2Cc1ccc(Cl)cc1` (configuration not stated): the IC50 was > 79 µM (inactive).
Same read-out and setting: to `CC(=O)Nc1ccc(NS(=O)(=O)c2cc(-c3n[nH]c(=O)c4ccccc34)ccc2C)cc1` belongs > 79 µM (inactive).
Turning to `CCOc1ccc(NC(=O)CN(C)C(=O)Cc2n[nH]c(=O)c3ccccc23)cc1OCC`, the IC50 was > 79 µM (inactive).
The same measure, in the same setting: to `O=C(Cn1[nH]c(=O)c2ccccc2c1=O)NC1CCCCCC1` belongs > 79 µM (inactive); to `COc1ccc(NC(=O)N(C)[C@H]2C[C@H]3c4[nH]c5ccc(-c6ccc7c(c6)OCO7)cc5c4CCN3C[C@H]2[C@H](C)O)cc1`, > 79 µM (inactive).
The same measure, in the same setting: to `COc1cc(/C=N/NC(=O)c2ccncc2)ccc1OC(=O)c1ccccc1Cl` belongs > 79 µM (inactive); to `COc1ccc(C(C(=O)NCc2ccccc2)N(Cc2ccco2)C(=O)c2snc(C(N)=O)c2N)cc1` (configuration not stated), > 79 µM (inactive); to `Cc1ccc(-c2csc(N3CCC[C@@H]3C(=O)NCCn3c(-c4ccncc4)nc4ccccc43)n2)cc1`, > 79 µM (inactive).
Still for that read-out and setting: to `COc1ccc(NC(=O)c2cc(-c3ccc(OC)c(OC)c3)nc3ccccc23)c(OC)c1` belongs > 79 µM (inactive); to `COc1cccc(-c2cnc3c(NC=O)cc(-c4cccc(NC(C)=O)c4)cn23)c1`, > 79 µM (inactive).
Turning to `NC(=O)c1cccc2c1C(=O)N(C1CCCCC1)C2`, the IC50 is > 79 µM (inactive).
As for `O=C(N/N=C/c1ccc(-c2cccc([N+](=O)[O-])c2)o1)c1ccc([N+](=O)[O-])cc1`, the IC50 is > 79 µM (inactive).
`O=C(CCCN1C(=O)c2cccc3cccc(c23)C1=O)N1CCN(c2ccccc2O)CC1`: the pIC50 is 4.99.
Regarding `COc1cccc(-c2nn3c(-c4ccco4)nnc3s2)c1`, the IC50 is > 79 µM (inactive).
Turning to `O=C(Nc1ccc2oc(-c3ccccc3F)nc2c1)c1ccc([N+](=O)[O-])o1`, the IC50 was > 79 µM (inactive).
Take `Cc1ccc(NC(=O)c2nc[nH]c2C(=O)NCCCNC(=O)c2[nH]cnc2C(=O)Nc2ccc(C)cc2)cc1`: the negative logarithm of the IC50 (pIC50) is 4.67.
Turning to `COC(=O)Oc1ccc(/C=C/C(=O)OC(C)C)cc1OC(=O)OC`, the IC50 was 63.1 µM (inactive).
Same read-out and setting: to `CC(=O)c1cccc(Nc2nc3ccccc3n3cnnc23)c1` belongs > 79 µM (inactive).
The same measure, in the same setting: to `CC1(C)CC2CC(C)(CN2C(=O)COC(=O)c2n[nH]c(=O)c3ccccc23)C1` (configuration not stated) belongs > 79 µM (inactive).
Turning to `CCN1C(=O)/C(=C/c2nc3ccccc3c(=O)[nH]2)c2ccccc21`, the IC50 is > 79 µM (inactive).
Same read-out and setting: to `CC(Oc1cccc(Cl)c1)C(=O)Nc1nc(-c2ccccn2)cs1` (configuration not stated) belongs 44.4 µM (inactive); to `O=C(CSC1=NNC(c2ccccn2)S1)Nc1cccc(Cl)c1` (configuration not stated), > 79 µM (inactive).
Still for that read-out and setting: to `Brc1cc2c(cc1/C=N/Nc1nc(N3CCCC3)nc(N3CCOCC3)n1)OCO2` belongs > 79 µM (inactive); to `CC(C)CC(C(=O)NC1CCCCC1)N(Cc1cccs1)C(=O)c1snc(C(N)=O)c1N` (configuration not stated), 30.1 µM (inactive); to `Cc1ccc(-c2n[nH]c(=O)c3ccccc23)cc1S(N)(=O)=O`, > 79 µM (inactive).
Take `COC(=O)c1ccc(C(C(=O)NCc2ccccc2)N(Cc2cccs2)C(=O)c2cnccn2)cc1` (configuration not stated): the pIC50 was 4.83.
Consider `CCC(=O)Oc1cccc(C(=O)Nc2ccc(-c3nnc(-c4ccco4)o3)cc2)c1`, for which the IC50 is > 79 µM (inactive).
With `O=C(O)c1ccc2c(c1)S(=O)(=O)c1cc(N3CCN(c4cnccn4)CC3)ccc1C2=O`, the IC50 was > 79 µM (inactive).
As to `COc1ccc(NS(=O)(=O)c2cc(NC(=O)Cc3n[nH]c(=O)c4ccccc34)ccc2OC)cc1`, the IC50 was > 79 µM (inactive).
With `CCNC(=O)/C(C#N)=C/c1c(N(Cc2ccccc2)Cc2ccccc2)nc2ccccn2c1=O`, the negative-log IC50 (pIC50) is 4.61.
For the compound `Cc1cc(C)cc(C(=O)Nc2ccc(NC(=O)c3cccs3)cc2)c1`, the IC50 is > 79 µM (inactive).
Same read-out and setting: to `CCOC(=O)c1cccc(C2=C(CNC(=O)c3cccnc3)[C@H]3CC[C@@H](C2)N3Cc2ccccc2)c1` belongs > 79 µM (inactive); to `COc1cccc(-c2cnc3c(NC(C)=O)cc(-c4cc(OC)c(OC)c(OC)c4)cn23)c1`, > 79 µM (inactive); to `CCCCn1c(N)c(Br)c(=O)[nH]c1=O`, > 79 µM (inactive).
On the same count and under the same terms, to `COc1cc(OC)cc(C(=O)NNC(=O)CCc2nc3ccccc3c(=O)[nH]2)c1` belongs > 79 µM (inactive); to `COc1ccccc1C(=O)NCC(=O)N/N=C/c1cc(Br)ccc1OC(=O)/C=C\c1ccco1`, > 79 µM (inactive); to `CNS(=O)(=O)c1cc2c3c(cccc3c1)C(=O)NC2=O`, > 79 µM (inactive).
On the same count and under the same terms, to `CCOc1cc(/C=C(\C#N)C(=O)Nc2ccc(S(N)(=O)=O)cc2)ccc1OCCN1CCOCC1` belongs > 79 µM (inactive); to `O=C(OCc1cc(=O)n2ccsc2n1)c1ccc(O)cc1O`, > 79 µM (inactive); to `COc1cccc(-c2cc3nc(C)c(C)c(N4CCN(C(=O)c5ccoc5)CC4)n3n2)c1`, > 79 µM (inactive).
On to `O=C(CCc1nc2ccccc2c(=O)[nH]1)Nc1ccc(N2CCCCC2)cc1`, for which the pIC50 is 4.70.
For `COc1ccc(OCC(=O)N/N=C/c2cccc3cccnc23)cc1`, the IC50 is 38.6 µM (inactive).
On to `CN(CC(=O)Nc1cccc(F)c1)C(=O)CCCc1nc2ccccc2c(=O)[nH]1`, for which the IC50 was > 79 µM (inactive).
Turning to `O=C(CCc1nc2ccccc2c(=O)[nH]1)N1CCN(S(=O)(=O)c2cccc(F)c2)CC1`, the IC50 is > 79 µM (inactive).
In the case of `O=C(NCC1CCCO1)C(c1ccc(F)cc1)N(C(=O)Cn1nnc(-c2ccc(F)cc2)n1)c1cccc(O)c1` (configuration not stated), the pIC50 was 4.88.
Take `O=C(Oc1cccc2c(=O)[nH]ccc12)c1ccccc1`: the negative-log IC50 (pIC50) is 5.04.
In the case of `Cc1c(C(=O)Nc2ccc3nc(N4CCOCC4)sc3c2)oc2ccccc12`, the IC50 is > 79 µM (inactive).
On to `Cc1cc(C)c(C)c(S(=O)(=O)N2CCN(C(=O)CCc3nc4ccccc4c(=O)[nH]3)CC2)c1C`, for which the IC50 is > 79 µM (inactive).
With `Cn1c(C(=O)NCc2cccs2)cc2c(=O)n(C)c3ccccc3c21`, the IC50 is > 79 µM (inactive).
The same measure, in the same setting: to `Cc1ccc(CN(C)C(=O)COC(=O)CSc2ccc(C(N)=O)cc2[N+](=O)[O-])cc1` belongs 31.3 µM (inactive).
Consider `O=C(NCCN1CCN(c2ccccc2F)CC1)c1cccn2c(=O)c3ccccc3nc12`, for which the pIC50 is 4.95.
Take `Cc1c(C=O)c2ccccn2c1C(=O)c1ccc(Cl)c([N+](=O)[O-])c1`: the IC50 is > 79 µM (inactive).
On the same count and under the same terms, to `NC(=O)c1ccccc1OCC(=O)NC12CC3CC(CC(C3)C1)C2` belongs > 79 µM (inactive).
Turning to `CCOC(=O)C1C(=O)NC(SCC(=O)OC)=C(C#N)C1c1ccccc1OCC` (configuration not stated), the negative-log IC50 (pIC50) was 4.77.
For `COc1cc(/C=C(\C#N)C(=O)Nc2ccccc2)ccc1OCCN1CCOCC1`, the pIC50 is 4.55.
Still for that read-out and setting: to `CCCc1cc(=O)oc2c(CNc3ccc(OCC)cc3)c(O)ccc12` belongs 4.76; to `Cc1cccc(-n2c(SCc3cc(=O)n4ccsc4n3)nc3ccccc3c2=O)c1`, 4.85.
Same read-out and setting: to `Cc1ccccc1C(C(=O)NCc1ccccc1)N(Cc1ccco1)C(=O)c1ccccn1` (configuration not stated) belongs 4.62; to `O=C(NC1CCCCC1)C(c1ccc2ncccc2c1)N(Cc1cccs1)C(=O)c1cccs1` (configuration not stated), 4.66.
As to `O=C(C(=O)N(Cc1ccccc1)Cc1ccccc1)c1c(-c2ccccc2)[nH]c2ccccc12`, the IC50 is > 79 µM (inactive).

(Values after PubChem BioAssay AID588780 (Sanford-Burnham Center for Chemical Genomics, 2011).)
